Laboratory results reported in patent US12370183B2, “Compositions and methods for treating malaria” (Rutgers, The State University of New Jersey, priority 2020, dated 2025).
Like-named read-outs stand apart in the source and are kept apart here.

How the values were obtained:
[1] = test system: resistant P. falciparum variant K1; assay: Potency against resistant P. falciparum variant K1 (EC50); format: cell-based; conditions: Plasmodium falciparum
[2] = test system: P. berghei Luciferase sporozoites in HepG2-A16-CD81EGFP cells; assay: P. berghei Luciferase liver stage assay; format: cell-based; conditions: Plasmodium berghei, 48 h after infection, bioluminescence, read-out: IC50 against sporozoite infection of liver cells (P. berghei Luciferase)
Description: Compounds 66 and 177 were tested for activity against sporozoite infection of liver cells as well the viability of liver schizonts of the murine Plasmodium berghei species transformed with Luciferase by using an assay adapted from S. Swann et al. (2016) High-Throughput Luciferase-Based Assay for the Discovery of Therapeutics That Prevent Malaria. ACS Infectious Diseases 2: 4. 281-293 (2016).
Compounds 66 and 177 were tested for activity against sporozoite infection of liver cells of the murine Plasmodium berghei species transformed with Luciferase by using the following P. berghei Luciferase liver stage assay.
Hepatic human transformed cells (HepG2) pre-treated for 18 hours with either compound 66 or 177 were infected with freshly dissected P. berghei Luciferase sporozoites. After another 48 hours of incubation with the compound, the viability of P. berghei exoerythrocytic forms (EEF) was measured by bioluminescence.
Plasmodium berghei Luciferase sporozoites were obtained by dissection of infected A. stephensi mosquito salivary glands supplied by the New York University Insectary. Dissected salivary glands were homogenized in a glass tissue grinder and filtered twice using Steriflip Vacuum-Driven Filtration System (20 μm pore size, Millipore) and counted using a hemocytometer. The sporozoites were kept on ice until needed. […]

[3] = Stability of the pyrrolinone to acid followed by H-1 NMR; format: physicochemical; conditions: methanol-D4, deuterated acetic acid dropwise; reversed by sodium hydride
Description: Without wishing to be bound by any particular theory or mechanism of action, it can be contemplated that the unique aminal structure of the pyrrolinones imparts specific chemical behavior. Aminals are normally unstable functionalities that are prone to hydrolysis. To test the stability of the […], a solution of 177 in methanol-D4 was treated dropwise with deuterated acetic acid. The experiment was followed by H-1 NMR analysis by observing the reduction of the peaks at 6.12 ppm and 8.73 ppm and the appearance of a peak at 9.42. […] Basifying the solution with sodium hydride returns the mixture to pyrrolinone.

SMILES	EC50 ([1]; K1, read-out: K1 EC50) [µM]	EC50 ([1]; K1, read-out: K1 EC50 (μM)) [µM]	IC50 [2] [nM]	stability to acid, in words [3]
O=C(Nc1ccc(F)c(F)c1)c1c2c(nc3ccccc13)CCN(Cc1ccccc1)C2 [Compound 66, 2-Benzyl-N-(3,4-difluorophenyl)-1,2,3,4-tetrahydrobenzo[b][1,6]naphthyridine-10-carboxamide]	0.0108	0.279	> 50000	–
O=C1c2c3c(nc4ccccc24)CCN(Cc2ccccc2)C3N1c1ccc(F)c(F)c1 (centres unmarked) [Compound 177, 3-Benzyl-2-(3,4-difluorophenyl)-2a,3,4,5-tetrahydrobenzo[b]pyrrolo[4,3,2-de][1,6]naphthyridin-1(2H)-one]	–	–	> 12500	Acidification causes the compound to begin conversion into another substance
